Assay results as given in patent publication US20130096170A1 (priority 2011, published 2013).
Entries after “also recorded” stand apart in the source; their conditions may differ.

Test system: prenatal Cynomolgus monkey brains (frontal cortex)
[1] = Group 2, 20 mg/kg im + 20-50 mg/kg/hr, 5 fetal brains examined

## CNC1(c2ccccc2Cl)CCCCC1=O (centres unmarked) [ketamine]
[1]
  Severity scoring of neuroapoptotic lesions, Activated caspase 3: 3.5 ± 0.7
  Severity scoring of neuroapoptotic lesions, HE: 1.9 ± 1.2
  Severity scoring of neuroapoptotic lesions, Silver: 2.0 ± 0.8
  Severity scoring of neuroapoptotic lesions, TUNEL: 2.9 ± 1.1
Group 2: 20 mg/kg IM+20-50 mg/kg/hr ketamine to pregnant monkeys, H&E, silver, TUNEL, AC3
  neuroapoptotic lesions / damaged and apoptotic cells in fetal frontal cortex: abundant neuroapoptotic lesions; also recorded: moderate to large number of damaged and apoptotic cells; also recorded: marked neuroapoptosis and cellular damage with necrosis
